This experiment has as its system CurKC-CurALP and CurKCkinase-CurKClyase. Kind of experiment: MST binding with or without an ATP analog. Details: species or system Thermomonospora curvata DSM43183. The note with it: three replicates.

Molecules are shown by their SMILES.

As to `Nc1ncnc2c1ncn2[C@@H]1O[C@H](COP(=O)(O)OP(=O)(O)OP(=O)(O)O)[C@@H](O)[C@H]1O` [ATP], the “effect on leader binding and lyase–kinase association” value was “little impact on the leader binding and lyase–kinase association”.

(Values after PMC9828337 (Angewandte Chemie (International Ed. in English), 2022).)
